Assay results reported in patent EP3643310B1, “COMPOSITION FOR REVERSE CONTROL OF CELLULAR SENESCENCE COMPRISING PDK1 INHIBITOR” (Korea Advanced Institute Of Science And Technology, priority 2018, dated 2020).

Experiments:
Type in all cases: cell-based, human
senescent fibroblasts [1] = assay: wound healing assay; settings: same senescence/inhibitor conditions; growth-condition medium for 7 days; FIG. 4B
Method: To determine whether the senescent cells subjected to the PDK1 inhibition are reverted to normal young cells, the PDX1 inhibitor BX-795 (Selleckchem) was applied to the senescent fibroblasts. Then, SA β-gal activity assay (senescence-associated β-galactosidase kit), wound healing assay, and fluorescence staining experiments were performed. Thus, the cell cycle change in the senescent cells based on PDK1 Inhibition was checked. Specifically, cellular senescence was caused by exposing the cells for 7 days to culture conditions causing senescence, containing 100 ng/ml of IGF1, 100 ng/ml of doxorubicin, 10 % FBS, and 4.5 g/L of glucose. At this time, most of the cells turned senescent. Then, the PDK1 inhibitor was applied to the same culture condition for 7 days. Total 14 days of the application lapsed. Then, the cells were treated with growth media free of IGF1, doxorubicin, or PDK1 inhibitor. The wound healing assay was performed under the same conditions. Ki-67 expression was analyzed to evaluate the division activity of the cells and the results are shown in 4C.

senescent fibroblasts [2] = assay: ki-67 fluorescence staining (cell division/proliferation marker)
Method: (§1) To determine whether the senescent cells subjected to the PDK1 inhibition are reverted to normal young cells, the PDX1 inhibitor BX-795 (Selleckchem) was applied to the senescent fibroblasts. Then, SA β-gal activity assay (senescence-associated β-galactosidase kit), wound healing assay, and fluorescence staining experiments were performed. Thus, the cell cycle change in the senescent cells based on PDK1 Inhibition was checked.
(§2) Specifically, cellular senescence was caused by exposing the cells for 7 days to culture conditions causing senescence, containing 100 ng/ml of IGF1, 100 ng/ml of doxorubicin, 10 % FBS, and 4.5 g/L of glucose. At this time, most of the cells turned senescent. Then, the PDK1 inhibitor was applied to the same culture condition for 7 days. Total 14 days of the application lapsed. […] Ki-67 expression was analyzed to evaluate the division activity of the cells and the results are shown in 4C.
(§3) In order to check whether the same result occurs when other PDK1 inhibitors are used, SA β-gal activity assay was performed in the same manner using PDK1 inhibitor 7. […] Therefore, the number of bluestained senescent cells as SA β-gal activity assay-positive and the total number of cells were counted using an optical microscope. […] In addition, fluorescence staining experiments were performed to check the expression of the cell proliferation marker ki-67.

senescent fibroblasts [3] = assay: SA β-gal activity assay (senescence-associated β-galactosidase kit)
Method: as §1, §2, §3

| SMILES | cell rejuvenation ability of the senescent cells (wound healing) (senescent fibroblasts [1]) | ki-67 staining, cell division (senescent fibroblasts [2]; cells treated with growth medium at 7 days after the drug application, FIG. 4C) | SA β-gal as an indicator of senescent cells (senescent fibroblasts [3]; senescence induced 7 days with IGF1 100 ng/ml + doxorubicin 100 ng/ml, PDK1 inhibitor applied 7 days, assay one day after change to growth media, FIG. 4A) | increase of the number of ki-67 positive cells (senescent fibroblasts [2]; PDK1 inhibitor applied to senescent cells, FIG. 5C, 5D) [%] | reduction of SA β-gal stained cells compared with the PDK1 inhibitor non-treated group (senescent fibroblasts [3]; percentage of blue-stained senescent cells counted by optical microscope, statistically significant, FIG. 5A, 5B) [%] |
| --- | --- | --- | --- | --- | --- |
| O=C(NCCCNc1nc(Nc2cccc(NC(=O)N3CCCC3)c2)ncc1I)c1cccs1 [BX-795] | normalized | cell division occurred in some of the cells | significantly reduced | – | – |
| O=C(N[C@@H](COc1ccc2[nH]c(=O)[nH]c2c1)c1ccccc1)c1cccn(Cc2ccc(F)c(F)c2)c1=O [PDK1 inhibitor 7] | – | – | – | ≥ 20 | ≥ 40 |
